# Test results published in patent US7914776B2, “Solid dispersions of opioid antagonists” (Adolor Corporation, priority 2005, dated 2011).
# “Also recorded” adds a separate entry of the source. Where two headings read alike, the source gives them in different places.
# Tests used:
# [1] = assay type: physicochemical
# Procedure: Amorphous samples were exposed to ambient, 53%, and 97% relative humidities at ambient temperature (about 10° C. to about 30° C.). The samples were also exposed to 75% relative humidity at 40° C. The samples were stressed for up to 60 days. Samples were taken periodically throughout the study and analyzed by x-ray powder diffraction (XRPD) for presence of crystallinity.
# Relative humidity stress studies were performed to assess the stability of amorphous alvimopan and solid dispersions. Studies were performed at ambient, 53%, and 97% relative humidity at ambient temperature. Ambient relative humidity and temperature was measured as approximately 24% and 22° C. Samples were also stressed at 75% relative humidity at 40° C. Samples were analyzed by XRPD for the presence of crystallinity.
# [2] = Moisture sorption analysis; assay type: physicochemical; settings: for XRPD after Moisture Sorption: solid remaining after moisture sorption analysis; for Moisture Sorption: weight lost upon desorption: between 95% and 5% RH
# [3] = Intrinsic dissolution experiments (Woods apparatus); assay type: physicochemical; settings: approximately 37° C., 75 rpm, 900 mL medium, value (SD)
# Procedure: Intrinsic dissolution experiments were conducted in a VanKel VK7010 dissolution apparatus equipped with a VK750A heater/circulator. An intrinsic dissolution apparatus (Woods apparatus) and hydraulic press were used to press samples of approximately 200 mg at approximately 1000 psi for 1 minute, giving a sample surface of 0.50 cm^2. Experiments were conducted in media of pH=1.2 HCl solution and pH =4.5 phosphate solution. 900 mL of medium was used for each experiment and the medium was maintained at approximately 37° C. The apparatus was rotated at 75 rpm. The Cary 50 UV/Vis spectrophotometer was utilized to sample automatically throughout the duration of the experiments.
# Samples were analyzed with a Cary 50 UV-VIS double-beam spectrophotometer, and were analyzed in 1.000-cm quartz cuvettes at a wavelength of 271 nm. The detector was zeroed with a cuvette filled with dissolution medium prior to sample analysis. Wavelength calibration was performed using holmium oxide. The photometric accuracy was verified by measuring the intensity of the light at the detector when filters of known optical density were placed in the path of the beam.
# [4] = Conversion of amorphous form to crystalline dihydrate form (background statement); assay type: physicochemical
# Source text: [[2(S)-[[4(R)-(3-hydroxyphenyl)-3(R),4-dimethyl-piperidinyl]methyl]-1-oxo-3-phenylpropyl]amino]acetic acid may exist in different crystalline forms, including hydrate forms, solvate forms and anhydrous form, and as an amorphous material. Above a relative humidity of about 15%, it exists in its crystalline dihydrate form. Below a relative humidity of about 15%, it exists in its anhydrous form. Amorphous [[2(S)-[[4(R)-(3-hydroxyphenyl)-3(R),4-dimethyl-piperidinyl]methyl]-1-oxo-3-phenylpropyl]amino]acetic acid is hygroscopic and converts to its crystalline dihydrate form when it is stressed, for example, at 54% relative humidity for 12 days or 75% relative humidity in the temperature range of about 40° C. to about 80° C. for three days. Under ambient conditions, amorphous [[2(S)-[[4(R)-(3-hydroxyphenyl)-3(R),4-dimethyl-piperidinyl]methyl]-1-oxo-3-phenylpropyl]amino]acetic acid completely converts to its crystalline dihydrate form after 66 days.
# [5] = Solubility in water (statement); assay type: physicochemical; settings: statement in words, dihydrate
# [6] = Bioavailability (statement); assay type: in vivo; settings: statement in words, dihydrate
# [7] = ambient conditions (approximately 24% relative humidity and 22° C.), 43 days stressed
# [8] = listed as Amorphous [[2(S)-[[4(R)-(3-hydroxyphenyl)-3(R),4-dimethyl-piperidinyl]methyl]-1-, sodium salt
# [9] = 53% Relative Humidity and Ambient Temperature, 7 days stressed
# [10] = 53% Relative Humidity and Ambient Temperature, 17 days stressed
# [11] = 53% Relative Humidity and Ambient Temperature, 30 days stressed
# [12] = 53% Relative Humidity and Ambient Temperature, 60 days stressed
# [13] = 97% Relative Humidity and Ambient Temperature, 7 days stressed
# [14] = ambient conditions (approximately 24% relative humidity and 22° C.), 7 days stressed
# [15] = ambient conditions (approximately 24% relative humidity and 22° C.), 17 days stressed
# [16] = ambient conditions (approximately 24% relative humidity and 22° C.), 30 days stressed
# [17] = 75% Relative Humidity and 40° C., 7 days stressed
# [18] = ambient conditions (approximately 24% relative humidity and 22° C.), 60 days stressed
# [19] = listed as Amorphous Alvimopan Prepared by Rotary Evaporation
# [20] = listed as rotary evaporated sample
# [21] = listed as Amorphous [[2(S)-[[4(R)-(3-hydroxyphenyl)-3(R),4-dimethyl-piperidinyl]methyl]-1-
smiles,measurement,setting,value
"C[C@H]1CN(C[C@H](Cc2ccccc2)C(=O)NCC(=O)[O-])CC[C@@]1(C)c1cccc(O)c1.[Na+] [2:1 sodium carbonate attempt; lyophilized; 100° C. vac oven] [[[2(S)-[[4(R)-(3-hydroxyphenyl)-3(R),4-dimethyl-piperidinyl]methyl]-1-oxo-3-phenylpropyl]amino]acetic acid sodium salt]",XRPD Result,"[1]; 53% Relative Humidity and Ambient Temperature, 13 days stressed",amorphous
same,XRPD Result,"[1]; 53% Relative Humidity and Ambient Temperature, 43 days stressed",amorphous
same,Observation,"[1]; 75% Relative Humidity and 40° C., 3 days stressed, sodium salt",deliquescence;
same,Outcome of stress,"[1]; 97% relative humidity and ambient temperature, listed as 2:1 amorphous [[2(S)-[[4(R)-(3-hydroxyphenyl)-3(R),4-dimethyl-piperidinyl]methyl, sodium salt",deliquesced within three days of exposure
same,Observation,"[1]; ambient conditions (approximately 24% relative humidity and 22° C.), 7 days stressed, sodium salt","off-white, yellow"
same,XRPD Result,"[1]; ambient conditions (approximately 24% relative humidity and 22° C.), 13 days stressed",amorphous + peak
same,XRPD Result,"[1]; ambient conditions (approximately 24% relative humidity and 22° C.), 30 days stressed, sodium salt",amorphous + peak;
same,Observation,[1]; [7],white and yellow
same,XRPD Result,[1]; [7],amorphous + peak
same,Moisture Sorption: lost upon equilibration at 5% RH,[2]; [8],0.1% lost upon equilibration at 5% RH
same,XRPD after Moisture Sorption,[2]; [8],deliquescence of the material; also recorded: sample deliquesced
"C[C@H]1CN(C[C@H](Cc2ccccc2)C(=O)NCC(=O)[O-])CC[C@@]1(C)c1cccc(O)c1.[Na+] [[[2(S)-[[4(R)-(3-hydroxyphenyl)-3(R),4-dimethyl-piperidinyl]methyl]-1-oxo-3-phenylpropyl]amino]acetic acid sodium salt]",XRPD Result,[1]; [9],amorphous + peak
same,XRPD Result,[1]; [10],amorphous + peak
same,XRPD Result,[1]; [11],amorphous + peak
same,XRPD Result,[1]; [12],amorphous + peak
same,Outcome of stress,[1]; 75% RH and 40° C.,deliquesced after three days of exposure
same,Observation,[1]; [13],white solids; slight
same,XRPD Result,[1]; [13],Form A
same,Outcome of stress,[1]; 97% relative humidity and ambient temperature,likely crystallized to Form A
same,XRPD Result,[1]; [14],amorphous + peak
same,Observation,[1]; [15],"off-white, yellow"
same,XRPD Result,[1]; [15],amorphous + peak
same,Observation,[1]; [16],"off-white, yellow"
same,XRPD Result,[1]; [16],amorphous + peak
same,Moisture Sorption: lost upon equilibration at 5% RH,[2],2.8% lost upon equilibration at 5% RH
same,XRPD after Moisture Sorption,[2]; [8],peak + amorphous
"C[C@H]1CN(C[C@H](Cc2ccccc2)C(=O)NCC(=O)O)CC[C@@]1(C)c1cccc(O)c1 [amorphous preparation, [[2(S)-[[4(R)-(3-hydroxyphenyl)-3(R),4-dimethyl-piperidinyl]methyl]-1-oxo-3-phenylpropyl]amino]acetic acid]",Stability conclusion of the stress studies,[1],stable under stress conditions except at 97% relative humidity
same,"Intrinsic Dissolution Rate, mg/min/cm^2 (SD), pH 1.2 HCl",[3],0.217 (0.017) mg/min/cm^2
same,time stressed after which amorphous form converts to its crystalline dihydrate form,[4]; 54% relative humidity,12 days
same,time stressed after which amorphous form converts to its crystalline dihydrate form,"[4]; 75% relative humidity, about 40° C. to about 80° C.",three days
same,time after which amorphous form completely converts to its crystalline dihydrate form,[4]; ambient conditions,66 days
"C[C@H]1CN(C[C@H](Cc2ccccc2)C(=O)NCC(=O)O)CC[C@@]1(C)c1cccc(O)c1 [crystalline alvimopan, [[2(S)-[[4(R)-(3-hydroxyphenyl)-3(R),4-dimethyl-1-piperidinyl]methyl]-1-oxo-3-phenylpropyl]amino]acetic acid dihydrate]","Intrinsic Dissolution Rate, mg/min/cm^2 (SD), pH 1.2 HCl",[3],0.148 (0.025) mg/min/cm^2
same,solubility in water,[5]; listed as Alvimopan,extremely low solubility in water
same,solubility in water,[5]; listed as alvimopan,lower solubility in water than amorphous
same,solubility in water,[5]; listed as compound of formula (II),low solubility in water except at low or high pH conditions
same,bioavailability,[6]; listed as Alvimopan,poor oral bioavailability
same,bioavailability,[6]; listed as alvimopan,lower bioavailability than the amorphous form
"C[C@H]1CN(C[C@H](Cc2ccccc2)C(=O)NCC(=O)O)CC[C@@]1(C)c1cccc(O)c1 [ethanol roto evap at 30° C.; 100° C. vac oven] [[[2(S)-[[4(R)-(3-hydroxyphenyl)-3(R),4-dimethyl-piperidinyl]methyl]-1-oxo-3-phenylpropyl]amino]acetic acid]",Stability conclusion of the stress studies,[1],showed crystallization under this same stress condition
same,XRPD Result,[1]; [9],amorphous
same,XRPD Result,[1]; [10],amorphous
same,XRPD Result,[1]; [11],amorphous
same,Observation,[1]; [12],"white solids,"
same,XRPD Result,[1]; [12],amorphous
same,Outcome of stress,"[1]; 75% RH and 40° C., listed as Amorphous [[2(S)-[[4(R)-(3-hydroxyphenyl)-3(R),4-dimethyl-piperidinyl]methyl]-1-",crystallized to alvimopan Form A
same,Observation,[1]; [17],white solids;
same,XRPD Result,[1]; [17],PC; Form A
same,Observation,[1]; [13],white solids; some
same,XRPD Result,[1]; [13],Form A
same,XRPD Result,[1]; [14],amorphous
same,XRPD Result,[1]; [15],amorphous
same,Observation,[1]; [16],"white solids, flakes;"
same,XRPD Result,[1]; [16],amorphous
same,XRPD Result,[1]; [18],amorphous
same,Moisture Sorption: weight gain between 5% and 95% RH,[2]; [19],13.8% weight gain between 5% and 95% RH
same,Moisture Sorption: weight gain between 5% and 95% RH,[2]; [20],~13%
same,Moisture Sorption: weight lost upon desorption,[2]; [19],12.2% weight lost upon desorption
same,Moisture Sorption: lost upon equilibration at 5% RH,[2]; [19],0.6% lost upon equilibration at 5% RH
same,XRPD after Moisture Sorption,[2]; [19],"low crystalline; amorphous, Form A, or Form B"
same,XRPD after Moisture Sorption,[2]; [20],crystallized to low crystalline material
"C[C@H]1CN(C[C@H](Cc2ccccc2)C(=O)NCC(=O)O)CC[C@@]1(C)c1cccc(O)c1 [lyophilized; 100° C. vac oven, [[2(S)-[[4(R)-(3-hydroxyphenyl)-3(R),4-dimethyl-piperidinyl]methyl]-1-oxo-3-phenylpropyl]amino]acetic acid]",Stability conclusion of the stress studies,[1],stable at 75% relative humidity and 40 °C
same,XRPD Result,[1]; [9],amorphous
same,XRPD Result,[1]; [10],amorphous
same,XRPD Result,[1]; [11],amorphous
same,XRPD Result,[1]; [12],amorphous
same,Outcome of stress,"[1]; 75% RH and 40° C., listed as amorphous alvimopan sample prepared by lyophilization",Crystallization was not observed
same,XRPD Result,[1]; [17],amorphous
same,XRPD Result,"[1]; 75% Relative Humidity and 40° C., 17 days stressed",amorphous
same,XRPD Result,"[1]; 75% Relative Humidity and 40° C., 30 days stressed",amorphous
same,XRPD Result,"[1]; 75% Relative Humidity and 40° C., 60 days stressed",amorphous
same,Observation,[1]; [13],off-white solids; some
same,XRPD Result,[1]; [13],Form A
same,XRPD Result,[1]; [14],amorphous
same,XRPD Result,[1]; [15],amorphous
same,XRPD Result,[1]; [16],amorphous
same,XRPD Result,[1]; [18],amorphous
same,Moisture Sorption: weight gain between 5% and 95% RH,[2]; [21],13.0% weight gain between 5% and 95% RH
same,Moisture Sorption: weight gain between 5% and 95% RH,[2]; listed as lyophilized sample,~13%
same,Moisture Sorption: weight lost upon desorption,[2]; [21],10.8% weight lost upon desorption
same,Moisture Sorption: lost upon equilibration at 5% RH,[2]; [21],0.2% lost upon equilibration at 5% RH
same,XRPD after Moisture Sorption,[2]; [21],amorphous
same,XRPD after Moisture Sorption,[2]; listed as lyophilized sample,remained amorphous
